Assay [1] has as its system kanamycin-binding DNA aptamer (DNA, aptamer) TGGGGGTTGAGGCTAAGCCGA
Description: TO fluorescent intercalator displacement. The note with it: 10 mM NaCl, 10 mM Tris-HCl pH 7.2, 25 °C.

For assay [2] the test system is unchanged. Put plainly: fluorescence enhancement. The note with it: 10 mM NaCl; 10 mM Tris-HCl pH 7.2, 25 °C; excitation 501 nm, emission 530 nm.
Assay [3] deals with Mut1 (DNA, aptamer) TGGGGGTTGAAACTAAGCCGA
Description: fluorescence enhancement. To be noted: 10 mM NaCl; 10 mM Tris-HCl pH 7.2, 25 °C; excitation 501 nm, emission 530 nm.

Assay [4] concerns Mut2 (DNA, aptamer) TGGAAATTGAGGCTAAGCCGA
Put plainly: TO fluorescent intercalator displacement. The note with it: 10 mM NaCl; 10 mM Tris-HCl pH 7.2, 25 °C; TO displaced; affinity comparable to parent aptamer.

Where [5] appears, read: TO tracer 3.5:1 to DNA, tested at 20 µM.

Molecules are shown by their SMILES.

In the case of `CC1(C)S[C@@H]2[C@H](NC(=O)[C@H](N)c3ccccc3)C(=O)N2[C@H]1C(=O)O`, in assay [1] (setting [5]), the binding result is recorded as “no”.

As to `CN(C)[C@@H]1C(=O)C(C(N)=O)=C(O)[C@@]2(O)C(=O)C3=C(O)c4c(O)cccc4[C@@](C)(O)[C@H]3[C@H](O)[C@@H]12`, the binding result in assay [1] (setting [5]) is recorded as “no”.

On to `CN(C)[C@@H]1C(O)=C(C(N)=O)C(=O)[C@@]2(O)C(O)=C3C(=O)c4c(O)ccc(Cl)c4[C@@](C)(O)[C@H]3C[C@@H]12`, for which the binding result in assay [1] (setting [5]) is recorded as “no”.

In the case of `CN1C(=Cc2cc[n+](C)c3ccccc23)Sc2ccccc21`, the figures for the binding entry in assay [2] and in assay [3] were “yes” and “weak”, respectively.

For `CN[C@@H]1[C@H](O[C@H]2[C@H](O[C@H]3[C@H](O)[C@@H](O)[C@H](N=C(N)N)[C@@H](O)[C@@H]3N=C(N)N)O[C@@H](C)[C@]2(O)C=O)O[C@@H](CO)[C@H](O)[C@H]1O`, the binding result in assay [1] (setting [5]) was “no”.

Turning to `COc1cc(NS(=O)(=O)c2ccc(N)cc2)nc(OC)n1`, in assay [1] (setting [5]), the binding result is given as “no”.

On to `NC[C@H]1O[C@H](O[C@H]2[C@H](O)[C@@H](O[C@H]3O[C@H](CO)[C@@H](O)[C@H](N)[C@H]3O)[C@H](N)C[C@@H]2N)[C@H](O)[C@@H](O)[C@@H]1O`, for which the binding result in assay [1] (TO displaced, kanamycin 0.1-100 µM) was “yes”; in assay [4], “yes”.

On to `O=C(N[C@H](CO)[C@H](O)c1ccc([N+](=O)[O-])cc1)C(Cl)Cl`, for which the binding entry in assay [1] (setting [5]) is reported as “no”.

(Values after publication PMC4311242 (2015).)
